Assay results reported in patent publication US6608082B1, “Treatment of erectile dysfunction using isoquinoline compound melanocortin receptor ligands” (Lion Bioscience AG, priority 1998, dated 2003).
Like-named read-outs stand apart in the source and are kept apart here.

Biological target: T1, MCR-1 (Homo sapiens, UniProt Q01726)
T1 construct: expressed in transfected cells; host or cells: HEK 293
Assay: Melanocortin receptor binding assay, competition with 125I-HP 467, HEK 293 cells expressing hMCR-1
Details: for IC50: read-out: MC-1 IC50; for % Disp. MC-1 10 μM: displacement of 125I-HP 467 at 10 μM isoquinoline compound; for % Disp. of 125I-HP 467 (first of duplicate) / % Disp. of 125I-HP 467 (second of duplicate): 10 μM isoquinoline compound; for % Disp. of 125I-HP 467 (first of duplicate): HEK 293 cells expressing MCR-1, duplicate 1; for % Disp. of 125I-HP 467 (second of duplicate): HEK 293 cells expressing MCR-1, duplicate 2
Summary of the method: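 Test compounds compete on intact HEK 293 cells carrying hMCR-1 (2×10^4 per tube) or hMCR-4 (4×10^3 per tube), suspended in PBS, 10% calf serum, 1 mM CaCl2.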

[1] = competition with 125I-HP 467, HEK 293 cells expressing MCR-1
[2] = inhibition of binding of 125I-HP 467, HEK 293 cells expressing MCR-1

T1 sequence (Q01726 whole entry): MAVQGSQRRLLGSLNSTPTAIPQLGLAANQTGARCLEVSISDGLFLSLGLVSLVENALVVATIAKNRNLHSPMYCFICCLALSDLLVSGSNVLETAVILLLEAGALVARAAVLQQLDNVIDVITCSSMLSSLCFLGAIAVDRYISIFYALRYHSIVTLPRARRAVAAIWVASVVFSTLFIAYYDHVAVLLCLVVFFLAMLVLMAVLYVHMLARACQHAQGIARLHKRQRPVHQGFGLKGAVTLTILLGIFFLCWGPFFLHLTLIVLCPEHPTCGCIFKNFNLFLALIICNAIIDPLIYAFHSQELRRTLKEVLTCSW

IC50 [1] [nM]	% Disp. MC-1 10 μM (first of duplicate) [%]	% Disp. MC-1 10 μM (second of duplicate) [%]	SMILES	further results
1460	–	–	NCC(CCCN1Cc2ccccc2C(CN)C1c1ccc(-c2ccccc2)cc1)NCCc1ccccc1 (stereo not shown) [TRG 2411-139]	–
300	–	–	CCNc1ccc(C2C(CNCCc3ccccc3)c3ccccc3CN2CCCCC(CN)NCCN)cc1 (stereo not shown) [TRG 2411-48]	–
110	–	–	CCNc1ccc(C2C(CN)c3ccccc3CN2CCCCC(CN)NCc2ccccc2)cc1 (stereo not shown) [TRG 2411-66]	–
–	18.5	29.6	NCCN1Cc2ccccc2C(CNC2CCCCC2)C1c1ccc2cccc(O)c2n1 (stereo not shown) [TRG 2405-82]	–
–	–	–	CCCCOc1ccc(C2C(CNCCc3ccccc3)c3ccccc3CN2CCCC(CN)NCc2ccccc2)cc1 (stereo not shown) [TRG 2412-27]	IC50 [2]: 250 nM
–	–	–	CNC(CN)CCCCN1Cc2ccccc2C(CNC2CCCCC2)C1c1cccc(C)n1 (stereo not shown) [TRG 2405-261]	% Disp. of 125I-HP 467 (first of duplicate): 45.9%; % Disp. of 125I-HP 467 (second of duplicate): 47.8%
1540	–	–	COCCNC(CN)CCCN1Cc2ccccc2C(CNCCc2ccccc2)C1c1ccc(-c2ccccc2)cc1 (stereo not shown) [TRG 2411-123]	–
–	32.8	33.3	CNC(CN)CN1Cc2ccccc2C(CNC2CCCCC2)C1c1c(F)cccc1Cl (stereo not shown) [TRG 2405-104]	–
–	–	–	CNC(CN)CCCCN1Cc2ccccc2C(CNC2CCCCC2)C1c1cc(C(F)(F)F)cc(C(F)(F)F)c1 (stereo not shown) [TRG 2405-208]	% Disp. of 125I-HP 467 (first of duplicate): 79.5%; % Disp. of 125I-HP 467 (second of duplicate): 67.5%
–	40	58.5	CNC(CN)CN1Cc2ccccc2C(CNC2CCCCC2)C1c1cccs1 (stereo not shown) [TRG 2405-113]	–
500	–	–	NC[C@@H](N)CCCN1Cc2ccccc2C(CNCCc2ccccc2)C1c1ccc(-c2ccccc2)cc1 (stereo partly shown) [TRG 2411-113]	–
–	–	–	CCCCNC(CN)CCCN1Cc2ccccc2C(CNC2CCCCC2)C1c1ccc(NCC)cc1 (stereo not shown) [TRG 2411-165]	IC50 [2]: 90 nM
–	58.2	61.1	CNC(CN)CN1Cc2ccccc2C(CNC2CCCCC2)C1c1cc(Cl)cc(Cl)c1Cl (stereo not shown) [TRG 2405-97]	–
–	–	–	CNC(CN)CCCCN1Cc2ccccc2C(CNC2CCCCC2)C1c1ccc(Cl)c(Cl)c1 (stereo not shown) [TRG 2405-206]	% Disp. of 125I-HP 467 (first of duplicate): 75%; % Disp. of 125I-HP 467 (second of duplicate): 69%
–	–	–	CNC(CN)CCCCN1Cc2ccccc2C(CNC2CCCCC2)C1c1ccc(OC)c(F)c1 (stereo not shown) [TRG 2405-220]	% Disp. of 125I-HP 467 (first of duplicate): 67.3%; % Disp. of 125I-HP 467 (second of duplicate): 60.6%
160	–	–	CCNc1ccc(C2C(CN)c3ccccc3CN2CCCCC(CN)NCCC2CCCCC2)cc1 (stereo not shown) [TRG 2411-70]	–

IC50 [1] [nM]	% Disp. MC-1 10 μM (first of duplicate) [%]	% Disp. MC-1 10 μM (second of duplicate) [%]	SMILES	further results
–	–	–	CNC(CN)CCCCN1Cc2ccccc2C(CNC2CCCCC2)C1c1ccc2ccccc2c1 (stereo not shown) [TRG 2405-200]	% Disp. of 125I-HP 467 (first of duplicate): 83.6%; % Disp. of 125I-HP 467 (second of duplicate): 81%
–	59.5	61.6	CNC(CN)CN1Cc2ccccc2C(CNC2CCCCC2)C1c1ccc2ccccc2c1 (stereo not shown) [TRG 2405-110]	–
–	–	–	CNC(CN)CCCCN1Cc2ccccc2C(CNC2CCCCC2)C1c1ccc(CN)cc1 (stereo not shown) [TRG 2405-244]	% Disp. of 125I-HP 467 (first of duplicate): 29.7%; % Disp. of 125I-HP 467 (second of duplicate): 22.5%
–	45.1	27	NCCN1Cc2ccccc2C(CNC2CCCCC2)C1c1c(F)cccc1F (stereo not shown) [TRG 2405-11]	–
–	–	–	CCCCCNc1ccc(C2C(CNCCc3ccccc3)c3ccccc3CN2CCCCC(CN)NC)cc1 (stereo not shown) [TRG 2412-1]	IC50 [2]: 380 nM
970	–	–	NCC1c2ccccc2CN(CCCCC(CN)N2CCCC2)C1c1ccc(-c2ccccc2)cc1 (stereo not shown) [TRG 2411-31]	–
–	20.2	49.9	CNC(CN)CN1Cc2ccccc2C(CNC2CCCCC2)C1c1ccccc1CN (stereo not shown) [TRG 2405-105]	–
–	–	–	CCNc1ccc(C2C(CN)c3ccccc3CN2CCCC(CN)NCc2ccc(Cl)cc2)cc1 (stereo not shown) [TRG 2411-183]	IC50 [2]: 130 nM
–	–	–	CNC(CN)CCCCN1Cc2ccccc2C(CNC2CCCCC2)C1c1ccc(OC)cc1 (stereo not shown) [TRG 2405-240]	% Disp. of 125I-HP 467 (first of duplicate): 69.6%; % Disp. of 125I-HP 467 (second of duplicate): 66.5%
–	1.3	9	CN(C)CCCOc1ccc(C2C(CNC3CCCCC3)c3ccccc3CN2CCN)cc1 (stereo not shown) [TRG 2405-54]	–
–	40.6	46	CNC(CN)CN1Cc2ccccc2C(CNC2CCCCC2)C1c1cccc(C)c1 (stereo not shown) [TRG 2405-137]	–
390	–	–	CNC(CNC(CN)CCCCN1Cc2ccccc2C(CNC2CCCCC2)C1c1ccc(-c2ccccc2)cc1)Cc1ccccc1 (stereo not shown) [TRG 2411-17]	–
–	–	–	CCOc1ccc(C2C(CNCCc3ccccc3)c3ccccc3CN2CCCC(CN)NCCc2ccccc2)cc1 (stereo not shown) [TRG 2412-20]	IC50 [2]: 150 nM
550	–	–	CCNC(CN)CCCCN1Cc2ccccc2C(CNCCc2ccccc2)C1c1ccc(-c2ccccc2)cc1 (stereo not shown) [TRG 2411-2]	–
–	21.9	22.1	CS(=O)(=O)c1ccc(C2C(CNC3CCCCC3)c3ccccc3CN2CCN)cc1 (stereo not shown) [TRG 2405-87]	–
1540	–	–	CCCCNC(CN)CCCN1Cc2ccccc2C(CNCCc2ccccc2)C1c1ccc(-c2ccccc2)cc1 (stereo not shown) [TRG 2411-124]	–
